Earlier results, collected in US20240246943A1, “MULTIFACETED APPROACH TO NOVEL INTERLEUKIN-6 INHIBITORS” (UNIVERSITY OF FLORIDA RESEARCH FOUNDATION, INCORPORATED, priority 2021, published 2024).

Target: T1, extracellular domain of glycoprotein 130 (gp130) (Homo sapiens, UniProt P40189)
T1 sequence (P40189 23-619 limits assumed): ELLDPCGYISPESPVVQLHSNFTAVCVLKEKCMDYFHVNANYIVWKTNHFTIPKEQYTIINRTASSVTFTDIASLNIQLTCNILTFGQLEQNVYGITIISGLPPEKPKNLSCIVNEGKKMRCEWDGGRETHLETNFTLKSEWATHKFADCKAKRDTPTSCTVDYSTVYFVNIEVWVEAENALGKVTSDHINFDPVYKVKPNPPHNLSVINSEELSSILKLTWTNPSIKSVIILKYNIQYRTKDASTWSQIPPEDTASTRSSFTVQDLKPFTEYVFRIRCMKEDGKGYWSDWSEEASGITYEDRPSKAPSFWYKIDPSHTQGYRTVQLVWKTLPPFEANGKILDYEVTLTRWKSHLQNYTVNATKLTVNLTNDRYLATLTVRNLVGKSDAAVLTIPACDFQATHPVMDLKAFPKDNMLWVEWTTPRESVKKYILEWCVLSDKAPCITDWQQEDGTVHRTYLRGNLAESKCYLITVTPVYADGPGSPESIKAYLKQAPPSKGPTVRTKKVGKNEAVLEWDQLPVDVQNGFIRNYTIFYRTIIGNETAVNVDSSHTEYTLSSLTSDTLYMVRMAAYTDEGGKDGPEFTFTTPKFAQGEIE
Details: binding to extracellular domain of gp130; literature reference 6; cited from earlier work

For `CCCCC1=C(C)C(=O)[C@](C)(CN2c3ccccc3[C@]3(O)CCOC23)C1=O` (stereo partly shown) [MDL-A, Madindoline A], the Kd is given as 288 µM.
